Data published in patent US8772250B2, “Compositions and methods for treating ischemia and ischemia-reperfusion injury” (Ischemix, LLC, priority 2010, dated 2014).
Where two headings read alike, the source gives them in different places.

Columns and labels:
Akt = experiment: Cytoblot assay for Akt activation in A549 cells; type: cell-based, human
Protocol: The ability of RLip-EA-OH to increase phosphorylated Akt was assayed using an in-cell western blot, or cytoblot. A549 cells (human non-small cell lung cancer cell line) were selected because these cells can be manipulated to increase or decrease the level of phosphoryated Akt. The cells were inoculated onto culture plates and allowed to adhere to the bottom, then treated, fixed, and permeabilized. Following permeabilization, the cells were treated with antibodies specific for either phospho-Akt or total Akt. The cells were then treated with fluorescent secondary antibodies to quantify the amount of bound primary antibody. Total Akt and phospho-Akt were simultaneously detected.
A549 cells were plated in 384 well black-wall, clear-bottom, cell culture-treated microtiter plates at 70% confluence. Cells were incubated overnight to allow cell attachment. The media was changed to low serum (0.1%, fetal bovine serum [FBS]) and the cells were incubated for another 24 hours. Cells were treated with test compounds, fixed and permeabilized for the Akt assay. The fixative was 3.7% formaldehyde in phosphate buffered saline. The permeabilization buffer was 0.5% Triton X-100 in phosphate buffered saline. After permeabilization of cells, the amounts of total Akt and phosphorylated Akt at either of the two phosphorylation sites (threonine-308 and serine-473) were determined at 7 test concentrations, each performed in quadruplicate. The phospho-Akt data were normalized to total Akt and background subtracted for analysis.
Following overnight serum starvation to reduce basal Akt phosphorylation, cells were stimulated with vehicle, RLip-EA-OH, or RLip-OH. Cells were treated for 45 minutes or 3 hours and studied for phosphorylation at serine-473 or threonine 308, respectively.

CHO M1-WT3 cells = experiment: Cytosolic calcium overload assay, carbachol stimulated; type: cell-based, Chinese hamster; settings: 200 nM carbachol, variant concentrations
Excerpt: Cytosolic calcium increases in the CHO M1-WT3 cells when stimulated with carbachol ([Molecular Devices, FlexStation Application Note 2, Comparison of FLIPR® and FLEXstation™ for Calcium Mobilization Assays]) and may be detected with a fluorescent dye that binds calcium. An increase in fluorescence following carbachol stimulation is interpreted as an increase in cytosolic calcium. Chinese hamster ovary (CHO) cells were allowed to adhere to the bottom of a 96-well culture plate. The fluorescent dye and a test sample were placed on the plate and allowed to be taken up by the cells. The fluorescence level was measured every two seconds using a plate reader (Flexstation II, Molecular Devices, Sunnyvale Calif.). The cells were stimulated with carbachol and fluorescent data reported as the peak increase in fluorescence above baseline following carbachol stimulation. Data were normalized to the peak carbachol response in the control sample.
CHO cells from the cell line CHO-M1-WT3 were grown in Hams F12 medium supplemented with 10% FBS and 5 μg/mL G418 to maintain expression of the M1 muscarinic receptor. Cells were seeded the night before the experiment at a concentration of 30,000 cells/well in a volume of 100 μL per well of black walled, clear bottomed, 96-well microplates (“assay plates”). Cells were incubated at 37° C. and 5% CO2 overnight. […] The cells were placed into the FlexStation system to monitor fluorescence before and after the addition of 50 μL of 1 μM carbachol for a final concentration of 200 nM. Fluorescence was measured for 17 seconds prior to carbachol addition and 43 seconds following carbachol addition. The Fluo-4 dye was excited at a wavelength of 485 nm and emission measured at 525 nm. The Calcium-3 dye was excited at a wavelength of 494 nm and emission measured at 525 nm. The calcium response was reported as the peak fluorescence minus the baseline fluorescence calculated as the average of the fluorescence prior to carbachol addition.

[1] = Pharmacokinetic evaluation in rats; type: in vivo; settings: both sexes, rat
Protocol: To evaluate systemic exposure to RLip-EA-OH, groups of rats were given single intravenous infusion doses of vehicle (2/sex) or RLip-EA-OH at the same dose levels of 30, 100, or 200 mg/kg (6/sex/group). For the vehicle-treated group, blood samples were collected from all rats at pre-dose and at 30 minutes (+2 minutes) post-dose only. For RLip-EA-OH-treated groups, blood samples were collected from three rats/sex/group at 10 minutes, 30 minutes, 45 minutes and 1, 2, 3, and 4 hours (±2 minutes) after dosing.
Administration was by IV infusion into a surgically-placed catheter in the femoral vein using a syringe pump at a rate of injection no greater than 0.2 mL/min. The dose volume for each animal was based on the most recent body weight measurement and doses were rounded to the nearest 0.1 mL. […]
Samples were placed in tubes containing K3EDTA and stored on ice until centrifuged, under refrigeration, for at least ten minutes at 3000 rpm. After centrifugation, plasma was removed and stored frozen at or below minus 70° C. until shipped to BASi in West Lafayette, Ind. for analysis.
Plasma RLip-EA-OH concentrations were measured at BASi in West Lafayette, Ind., using a validated LC/MS/MS method with positive turbo ion spray, in the multiple reaction-monitoring mode. The quantifiable range for the assay was 0.05 to 50 μg/mL and QC samples were included at 0.15, 10 and 37.5 μg/mL. Toxicokinetic analysis was performed using WinNonlin version 5.1 by calculation of standard parameters.

C[C@H](NC(=O)[C@H](CCC(=O)O)NC(=O)CCCC[C@@H]1CCSS1)C(=O)O [RLip-EA-OH, N-(R)-lipoyl-L-glutamyl-L- alanine]
increase in phosphorylated Akt at serine 473 (Akt; 45 minutes of treatment): 3 fold
Akt phosphorylation at threonine-308 (Akt; 3 hours of treatment, compound alone): Increased Akt phosphorylation
amount of phosphorylated Akt relative to total Akt (Akt; variant concentrations): increased the amount of phosphorylated Akt relative to total Akt in a dose dependent manner
effect on carbachol stimulated flux in cytosolic calcium (CHO M1-WT3 cells): diminished the flux in cytosolic calcium in a dose dependent manner
AUC(0-inf) ([1]; plasma, 30 mg/kg IV infusion): ~7000 ng·h/mL
Cmax ([1]; plasma, 30 mg/kg IV infusion): 20000 ng/mL
clearance ([1]; plasma, 30 mg/kg IV infusion): 75 mL/min/kg
Vd ([1]; plasma, 30 mg/kg IV infusion, read-out: Vss): 1.2 L/kg
half-life ([1]; plasma, 30 mg/kg IV infusion, read-out: t½ (converted)): 9 min
half-life ([1]; serum, intravenous, rats, dose of 30 mg/kg, read-out: serum half-life): ~9 min
